US12662498B2 (priority 2017, dated 2026)

Key:
[1] = ICH stability study of psilocybin batches (appearance, water content, purity, assay); settings: accelerated conditions
[2] = Heat cycling slurry maturation of Psilocybin Pattern A in 24 solvents (visual solubility); also: test concentration or dose not given here

## CN(C)CCc1c[nH]c2cccc(OP(=O)(O)O)c12 [Polymorph A]
[1]
  time stable under accelerated stability testing conditions: 12 months
[2]; 2-Chlorobutane
  Obs. 20° C., 0.4 ml: Susp.
  Obs. 20° C., 0.8 ml: Susp.
  Obs. 20° C., 1.2 ml: Susp.
[2]; 2-Chlorobutane, 1.2 ml
  Obs. 50° C.: Susp.
[2]; 4:1 EtOH/water
  Obs. 20° C., 0.4 ml: Susp.
  Obs. 20° C., 0.8 ml: Susp.
  Obs. 20° C., 1.2 ml: Susp.
[2]; 4:1 EtOH/water, 1.2 ml
  Obs. 50° C.: Susp.
[2]; 4:1 IPA/water
  Obs. 20° C., 0.4 ml: Susp.
  Obs. 20° C., 0.8 ml: Susp.
  Obs. 20° C., 1.2 ml: Susp.
[2]; 4:1 IPA/water, 1.2 ml
  Obs. 50° C.: Susp.
[2]; 4:1 THF/water
  Obs. 20° C., 0.4 ml: Susp.
  Obs. 20° C., 0.8 ml: Susp.
  Obs. 20° C., 1.2 ml: Susp.
[2]; 4:1 THF/water, 1.2 ml
  Obs. 50° C.: Susp.
[2]; Anisole
  Obs. 20° C., 0.4 ml: Susp.
  Obs. 20° C., 0.8 ml: Susp.
  Obs. 20° C., 1.2 ml: Susp.
[2]; Anisole, 1.2 ml
  Obs. 50° C.: Susp.
[2]; Benzotrifluoride
  Obs. 20° C., 0.4 ml: Susp.
  Obs. 20° C., 0.8 ml: Susp.
  Obs. 20° C., 1.2 ml: Susp.
[2]; Benzotrifluoride, 1.2 ml
  Obs. 50° C.: Susp.
[2]; CHCl3
  Obs. 20° C., 0.4 ml: Susp.
  Obs. 20° C., 0.8 ml: Susp.
  Obs. 20° C., 1.2 ml: Susp.
[2]; CHCl3, 1.2 ml
  Obs. 50° C.: Susp.
[2]; CPME
  Obs. 20° C., 0.4 ml: Susp.
  Obs. 20° C., 0.8 ml: Susp.
  Obs. 20° C., 1.2 ml: Susp.
[2]; CPME, 1.2 ml
  Obs. 50° C.: Susp.
[2]; Chlorobenzene
  Obs. 20° C., 0.4 ml: Susp.
  Obs. 20° C., 0.8 ml: Susp.
  Obs. 20° C., 1.2 ml: Susp.
[2]; Chlorobenzene, 1.2 ml
  Obs. 50° C.: Susp.
[2]; Cyclohexane
  Obs. 20° C., 0.4 ml: Susp.
  Obs. 20° C., 0.8 ml: Susp.
  Obs. 20° C., 1.2 ml: Susp.
[2]; Cyclohexane, 1.2 ml
  Obs. 50° C.: Susp.
[2]; EtOAc
  Obs. 20° C., 0.4 ml: Susp.
  Obs. 20° C., 0.8 ml: Susp.
  Obs. 20° C., 1.2 ml: Susp.
[2]; EtOAc, 1.2 ml
  Obs. 50° C.: Susp.
[2]; EtOH
  Obs. 20° C., 0.4 ml: Susp.
  Obs. 20° C., 0.8 ml: Susp.
  Obs. 20° C., 1.2 ml: Susp.
[2]; EtOH, 1.2 ml
  Obs. 50° C.: Susp.
[2]; Heptane
  Obs. 20° C., 0.4 ml: Susp.
  Obs. 20° C., 0.8 ml: Susp.
  Obs. 20° C., 1.2 ml: Susp.
[2]; Heptane, 1.2 ml
  Obs. 50° C.: Susp.
[2]; IPA
  Obs. 20° C., 0.4 ml: Susp.
  Obs. 20° C., 0.8 ml: Susp.
  Obs. 20° C., 1.2 ml: Susp.
[2]; IPA, 1.2 ml
  Obs. 50° C.: Susp.
[2]; MEK
  Obs. 20° C., 0.4 ml: Susp.
  Obs. 20° C., 0.8 ml: Susp.
  Obs. 20° C., 1.2 ml: Susp.
[2]; MEK, 1.2 ml
  Obs. 50° C.: Susp.
[2]; MIBK
  Obs. 20° C., 0.4 ml: Susp.
  Obs. 20° C., 0.8 ml: Susp.
  Obs. 20° C., 1.2 ml: Susp.
[2]; MIBK, 1.2 ml
  Obs. 50° C.: Susp.
[2]; MeCN
  Obs. 20° C., 0.4 ml: Susp.
  Obs. 20° C., 0.8 ml: Susp.
  Obs. 20° C., 1.2 ml: Susp.
[2]; MeCN, 1.2 ml
  Obs. 50° C.: Susp.
[2]; MeOH
  Obs. 20° C., 0.4 ml: Susp.
  Obs. 20° C., 0.8 ml: Susp.
  Obs. 20° C., 1.2 ml: Susp.
[2]; MeOH, 1.2 ml
  Obs. 50° C.: Susp.
[2]; Nitromethane
  Obs. 20° C., 0.4 ml: Susp.
  Obs. 20° C., 0.8 ml: Susp.
  Obs. 20° C., 1.2 ml: Susp.
[2]; Nitromethane, 1.2 ml
  Obs. 50° C.: Susp.
[2]; TBME
  Obs. 20° C., 0.4 ml: Susp.
  Obs. 20° C., 0.8 ml: Susp.
  Obs. 20° C., 1.2 ml: Susp.
[2]; TBME, 1.2 ml
  Obs. 50° C.: Susp.
[2]; THF
  Obs. 20° C., 0.4 ml: Susp.
  Obs. 20° C., 0.8 ml: Susp.
  Obs. 20° C., 1.2 ml: Susp.
[2]; THF, 1.2 ml
  Obs. 50° C.: Susp.
[2]; Toluene
  Obs. 20° C., 0.4 ml: Susp.
  Obs. 20° C., 0.8 ml: Susp.
  Obs. 20° C., 1.2 ml: Susp.
[2]; Toluene, 1.2 ml
  Obs. 50° C.: Susp.
[2]; Water
  Obs. 20° C., 0.4 ml: Susp.
  Obs. 20° C., 0.8 ml: Susp.
  Obs. 20° C., 1.2 ml: Susp.
[2]; Water, 1.2 ml
  Obs. 50° C.: Solution
[2]; iPrOAc
  Obs. 20° C., 0.4 ml: Susp.
  Obs. 20° C., 0.8 ml: Susp.
  Obs. 20° C., 1.2 ml: Susp.
[2]; iPrOAc, 1.2 ml
  Obs. 50° C.: Susp.
